Source: US12630498B2 (Genzyme Corporation, priority 2019, dated 2026)

What was measured:
[1] = molecular target: T1, CFTR-mediated transepithelial chloride transport in primary human bronchial epithelial cells from a ΔF508 homozygous CF donor (Homo sapiens, UniProt P13569, DEL508-508); experiment: TECC24 recording of CFTR-mediated transepithelial chloride transport in CF-HBE cells (AUC fold over DMSO); type: cell-based; settings: test agent 10 μM, 48 hours incubation, AUC of forskolin-stimulated IEQ relative to DMSO
T1 construct: Primary human bronchial epithelial cells from a ΔF508 homozygous CF donor; host or cells: primary CF-HBE cells, ΔF508 homozygous donor
Summary of the method: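 Equivalent Cl⁻ current was derived from transepithelial voltage and resistance, and its AUC from forskolin (10 μM) to CFTRinh-172 (20 μM) was divided by the DMSO AUC. Benzamil 10 μM blocked ENaC. Cells were ΔF508-homozygous primary bronchial epithelia pretreated 48 h at 36.5 °C in IL-13 medium.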

[2] = molecular target: T2, human Cystic Fibrosis Transmembrane Conductance Regulator (CFTR) harboring the ΔF508 mutation (Homo sapiens, UniProt P13569, DEL508-508); experiment: H441 cell ΔF508-CFTR-HRP cell surface assay (Emax and EC50); type: cell-based; settings: for Emax: NCI-H441, NA = Not active
T2 construct: expressed in transfected cells; host or cells: H441 carcinoma line (G418-selected)
Summary of the method: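 H441 and 41o- bronchial epithelial cells expressing ΔF508-CFTR with an extracellular-loop-4 HRP tag were treated with a 15-point compound series (24.5–0.001 μM) for two nights, H441 at 27° C, 41o- at 37° C with 0.0005 mg/ml doxycycline. Surface HRP luminescence read; % of maximum VX809 signal and EC50 derived.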

T2 sequence (P13569 with tags, fused parts or gaps DEL508-508): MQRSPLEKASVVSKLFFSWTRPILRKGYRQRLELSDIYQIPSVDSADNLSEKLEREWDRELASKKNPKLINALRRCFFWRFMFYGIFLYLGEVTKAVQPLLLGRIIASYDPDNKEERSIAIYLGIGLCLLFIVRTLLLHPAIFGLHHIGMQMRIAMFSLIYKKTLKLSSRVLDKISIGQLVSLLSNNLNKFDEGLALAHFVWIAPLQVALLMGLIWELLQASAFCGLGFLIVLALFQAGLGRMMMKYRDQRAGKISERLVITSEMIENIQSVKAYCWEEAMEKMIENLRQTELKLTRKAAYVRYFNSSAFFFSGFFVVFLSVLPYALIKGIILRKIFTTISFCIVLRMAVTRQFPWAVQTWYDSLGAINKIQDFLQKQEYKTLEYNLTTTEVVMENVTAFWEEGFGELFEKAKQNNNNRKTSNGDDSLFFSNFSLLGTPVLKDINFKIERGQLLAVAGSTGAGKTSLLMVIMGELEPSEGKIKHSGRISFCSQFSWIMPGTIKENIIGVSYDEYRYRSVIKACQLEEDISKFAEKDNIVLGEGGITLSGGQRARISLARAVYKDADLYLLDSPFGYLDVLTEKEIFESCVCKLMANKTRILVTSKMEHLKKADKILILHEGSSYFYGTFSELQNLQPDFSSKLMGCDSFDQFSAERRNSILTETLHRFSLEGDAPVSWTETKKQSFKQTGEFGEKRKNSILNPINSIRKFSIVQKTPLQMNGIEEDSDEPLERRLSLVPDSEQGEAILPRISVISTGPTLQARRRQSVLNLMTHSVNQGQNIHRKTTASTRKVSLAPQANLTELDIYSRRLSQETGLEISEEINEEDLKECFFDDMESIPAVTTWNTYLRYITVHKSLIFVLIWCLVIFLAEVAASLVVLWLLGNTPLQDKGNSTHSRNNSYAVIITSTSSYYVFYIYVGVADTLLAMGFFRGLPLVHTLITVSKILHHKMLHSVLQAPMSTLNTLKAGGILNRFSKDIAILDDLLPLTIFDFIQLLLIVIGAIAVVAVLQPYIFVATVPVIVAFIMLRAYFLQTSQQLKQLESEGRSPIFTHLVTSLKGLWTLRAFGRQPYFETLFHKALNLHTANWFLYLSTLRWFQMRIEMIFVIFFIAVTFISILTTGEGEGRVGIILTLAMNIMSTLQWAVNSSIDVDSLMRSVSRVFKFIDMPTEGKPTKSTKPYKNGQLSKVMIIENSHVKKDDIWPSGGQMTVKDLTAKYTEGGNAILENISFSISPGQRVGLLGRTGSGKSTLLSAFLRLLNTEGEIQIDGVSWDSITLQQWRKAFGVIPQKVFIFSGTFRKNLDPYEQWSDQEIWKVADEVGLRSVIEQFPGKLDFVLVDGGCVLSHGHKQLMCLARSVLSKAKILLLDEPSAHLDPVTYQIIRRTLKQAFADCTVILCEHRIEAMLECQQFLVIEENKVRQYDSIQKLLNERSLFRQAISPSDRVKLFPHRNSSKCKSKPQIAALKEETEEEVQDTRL
T1 sequence (P13569 with tags, fused parts or gaps DEL508-508): as above

Row | SMILES | TECC24 AUC fold over DMSO @10 μM [1] | EC50 [2] | Emax [2]
1 | CC(C)(S[C@@H]1C[C@@H]2CC[C@H]1C2)[C@H](NC(=O)c1ccc2cc(F)ccc2c1OCc1ccc(SC(F)(F)F)cc1)C(=O)O [Example 177, (R)-3-(((1S,2R,4R)-bicyclo[2.2.1]heptan-2-yl)thio)-2-(6-fluoro-1-((4-((trifluoromethyl)thio)benzyl)oxy)-2-naphthamido)-3-methylbutanoic Acid] | C (“C” refers to AUC @10 uM <4) | 700 nM | 64.7%
2 | O=C(N[C@@H](Cc1ccc2c(c1)OCO2)C(=O)O)c1ccc2ccccc2c1OCc1ccc(C(F)(F)F)cc1 [Example 106, (S)-3-(benzo[d][1,3]dioxol-5-yl)-2-(1-((4-(trifluoromethyl)benzyl)oxy)-2-naphthamido)propanoic Acid] | C (“C” refers to AUC @10 uM <4) | 10400 nM | 82.1%
3 | CCC(C)(C)[C@H](NC(=O)c1ccc2ccc(C)cc2c1OCC1CCCCC1)C(=O)O [Example 281, (S)-2-(1-(cyclohexylmethoxy)-7-methyl-2-naphthamido)-3,3-dimethylpentanoic Acid] | A (“A” refers to AUC @10 uM >6) | 700 nM | 246%
4 | CC(C)(C)[C@H](NC(=O)c1cc(F)c2ccccc2c1OCc1ccc(C(F)(F)F)cc1)C(=O)O [Example 64, (S)-2-(4-fluoro-1-((4-(trifluoromethyl)benzyl)oxy)-2-naphthamido)-3,3-dimethylbutanoic Acid] | C (“C” refers to AUC @10 uM <4) | 600 nM | 106%
5 | CC(C)(C)[C@H](NC(=O)c1ccc2ccccc2c1OCc1ccc(C(F)(F)F)cc1)C(=O)O [Example 74] | A (“A” refers to AUC @10 uM >6) | 800 nM | 216%
6 | O=C(N[C@H](C(=O)O)C1CCCC1)c1ccc2cc(F)ccc2c1OCc1ccc(C(F)(F)F)cc1 [Example 153, (S)-2-cyclopentyl-2-(6-fluoro-1-((4-(trifluoromethyl)benzyl)oxy)-2-naphthamido)acetic Acid] | B (“B” refers to AUC @10 uM between 4-6) | 1500 nM | 73.5%
7 | Cc1ccc2ccc(C(=O)N[C@H](C(=O)O)C(C)(C)C)c(OCc3ccc(OC(F)(F)F)cc3)c2c1 [Example 249, (2S)-3,3-dimethyl-2-[[7-methyl-1-[[4-(trifluoromethoxy)phenyl]methoxy]naphthalene-2-carbonyl]amino]butanoic Acid] | A (“A” refers to AUC @10 uM >6) | 200 nM | 305%
8 | CC(C)(C)[C@H](NC(=O)c1ccc2ccccc2c1OC[C@H]1CC[C@H](C(F)(F)F)CC1)C(=O)O [Example 222, (2S)-3,3-dimethyl-2-[[1-[[4-(trifluoromethyl)cyclohexyl]methoxy]naphthalene-2-carbonyl]amino]butanoic Acid] | A (“A” refers to AUC @10 uM >6) | 2900 nM | 154%
9 | CC(C)(C)[C@H](NC(=O)c1ccc2ccccc2c1OCc1ccc([N+](=O)[O-])cc1)C(=O)O [Example 231, (2S)-3,3-dimethyl-2-[[1-[(4-nitrophenyl)methoxy]naphthalene-2-carbonyl]amino]butanoic Acid] | C (“C” refers to AUC @10 uM <4) | 7800 nM | 70.1%
10 | CC(C)(C)[C@H](NC(=O)c1ccc2ccc(-c3cscn3)cc2c1OCc1ccc(C(F)(F)F)cc1)C(=O)O [Example 243, (2S)-3,3-dimethyl-2-[[7-thiazol-4-yl-1-[[4-(trifluoromethyl)phenyl]methoxy]naphthalene-2-carbonyl]amino]butanoic Acid] | A (“A” refers to AUC @10 uM >6) | 500 nM | 159%
11 | CC(C)(C)[C@H](NC(=O)c1ccc2ccccc2c1OCc1ccc(S(F)(F)(F)(F)F)cc1)C(=O)O [Example 67, (S)-3,3-dimethyl-2-(1-((4-(pentafluoro-l6-sulfanyl)benzyl)oxy)-2-naphthamido)butanoic Acid] | A (“A” refers to AUC @10 uM >6) | 800 nM | 112%
12 | CC(C)(C)[C@H](NC(=O)c1ccc2cc(F)ccc2c1OCc1ccc(C(F)(F)F)cc1)C(=O)O [Example 27, (S)-2-(6-fluoro-1-((4-(trifluoromethyl)benzyl)oxy)-2-naphthamido)-3,3-dimethylbutanoic Acid] | B (“B” refers to AUC @10 uM between 4-6) | 600 nM | 134%
13 | C[C@H](OC(C)(C)C)C(NC(=O)c1ccc2ccccc2c1OCc1ccc(C(F)(F)F)cc1)C(=O)O (stereo partly drawn) [Example 134, (3S)-3-(tert-butoxy)-2-(1-((4-(trifluoromethyl)benzyl)oxy)-2-naphthamido)butanoic Acid] | C (“C” refers to AUC @10 uM <4) | 1000 nM | 84.9%
14 | O=C(N[C@@H](Cc1ccco1)C(=O)O)c1ccc2ccccc2c1OCc1ccc(C(F)(F)F)cc1 [Example 136, (S)-3-(furan-2-yl)-2-(1-((4-(trifluoromethyl)benzyl)oxy)-2-naphthamido)propanoic Acid] | C (“C” refers to AUC @10 uM <4) | 8100 nM | 73.6%
15 | CC(C)(C)[C@H](NC(=O)c1ccc2cc(F)ccc2c1OCc1nc2ccccc2s1)C(=O)O [Example 61, (S)-2-(1-(benzo[d]thiazol-2-ylmethoxy)-6-fluoro-2-naphthamido)-3,3-dimethylbutanoic Acid] | C (“C” refers to AUC @10 uM <4) | 2700 nM | 132%
16 | O=C(N[C@H](C(=O)O)C(c1ccccc1)c1ccccc1)c1ccc2ccccc2c1OCc1ccc(OC(F)(F)F)cc1 [Example 189, (S)-3,3-diphenyl-2-(1-((4-(trifluoromethoxy)benzyl)oxy)-2-naphthamido)propanoic Acid] | C (“C” refers to AUC @10 uM <4) | 2400 nM | 14.3%

Other lines, results leading:

Row | TECC24 AUC fold over DMSO @10 μM [1] | EC50 [2] | Emax [2] | SMILES
17 | A (“A” refers to AUC @10 uM >6) | 300 nM | 349% | CCC(C)(C)[C@H](NC(=O)c1ccc2ccc(OC)cc2c1OCc1ccc(C(F)(F)F)cc1)C(=O)O [Example 309, (S)-2-(7-methoxy-1-((4-(trifluoromethyl)benzyl)oxy)-2-naphthamido)-3,3-dimethylpentanoic Acid]
18 | A (“A” refers to AUC @10 uM >6) | 100 nM | 442% | CCCC(C)(C)[C@H](NC(=O)c1ccc2ccc(C(F)F)cc2c1OCc1ccc(C(F)(F)F)cc1)C(=O)O [Example 246, (2S)-2-[[7-(difluoromethyl)-1-[[4-(trifluoromethyl)phenyl]methoxy]naphthalene-2-carbonyl]amino]-3,3-dimethylhexanoic Acid]
19 | A (“A” refers to AUC @10 uM >6) | 100 nM | 249% | CCCC(C)(C)[C@H](NC(=O)c1ccc2ccc(C(F)(F)F)cc2c1OCc1ccc(C(F)(F)F)cc1)C(=O)O [Example 304, (S)-3,3-dimethyl-2-(7-(trifluoromethyl)-1-((4-(trifluoromethyl)benzyl)oxy)-2-naphthamido)hexanoic Acid]
20 | A (“A” refers to AUC @10 uM >6) | 100 nM | 365% | CC(C)(C)[C@H](NC(=O)c1ccc2ccc(C(F)F)cc2c1OCc1ccc(C(F)(F)F)cc1)C(=O)O [Example 244, (2S)-2-[[7-(difluoromethyl)-1-[[4-(trifluoromethyl)phenyl]methoxy]naphthalene-2-carbonyl]amino]-3,3-dimethyl-butanoic Acid]
21 | C (“C” refers to AUC @10 uM <4) | 600 nM | 81.1% | CC(C)(C)[C@@H](NC(=O)c1ccc2ccc(C(F)(F)F)cc2c1OCc1ccc(C(F)(F)F)cc1)C(=O)O [Example 307, (R)-3,3-dimethyl-2-(7-(trifluoromethyl)-1-((4-(trifluoromethyl)benzyl)oxy)-2-naphthamido)butanoic Acid]
22 | A (“A” refers to AUC @10 uM >6) | 500 nM | 408% | COc1ccc2ccc(C(=O)N[C@H](C(=O)O)C(C)(C)C)c(OCc3ccc(C(F)(F)F)cc3)c2c1 [Example 308, (S)-2-(7-methoxy-1-((4-(trifluoromethyl)benzyl)oxy)-2-naphthamido)-3,3-dimethylbutanoic Acid]
23 | A (“A” refers to AUC @10 uM >6) | 200 nM | 186% | CCC(C)(C)[C@H](NC(=O)c1ccc2ccc(C(F)(F)F)cc2c1OCc1ccc(OC(F)(F)F)cc1)C(=O)O [Example 296, (S)-3,3-dimethyl-2-(1-((4-(trifluoromethoxy)benzyl)oxy)-7-(trifluoromethyl)-2-naphthamido)pentanoic Acid]
24 | A (“A” refers to AUC @10 uM >6) | 100 nM | 368% | CCC(C)(C)[C@H](NC(=O)c1ccc2ccc(C(F)F)cc2c1OCc1ccc(C(F)(F)F)cc1)C(=O)O [Example 242, (2S)-2-[[7-(difluoromethyl)-1-[[4-(trifluoromethyl)phenyl]methoxy]naphthalene-2-carbonyl]amino]-3,3-dimethyl-pentanoic Acid]
